# Test results: patent US20230075765A1, “PYRROLO[2,3-D]PYRIMIDINE DERIVATIVE TARGETING EGFR MUTATION, AS WELL AS THE PREPARATIVE METHOD AND THE USE THEREOF” (WEST CHINA HOSPITAL, SICHUAN UNIVERSITY, priority 2020, published 2023)
# Where two headings read alike, the source gives them in different places.
# Key:
# HBE cells = assay: Inhibition of cell proliferation, CCK8 method; format: cell-based, human; details: for IC50: HBE normal bronchial epithelial cells, 48 h, CCK8, read-out: Inhibitory activity (IC50) against HBE
# Description: (§1) The stock solution was diluted with the corresponding culture medium to the required concentration just before the experiment.
# (§2) HBE cells and BEAS-2B cells are normal lung bronchial epithelial cell lines, and both cells were cultured in DMEM high glucose medium (supplemented with 10% fetal bovine serum and 1% double antibody) to the logarithmic growth phase; H460 cells, A549 cells, H1975 cells and HCC827 cells are lung cancer cell lines, and all of them were cultured in RPMI1640 medium (supplemented with 10% fetal bovine serum and 1% double antibody) to the logarithmic growth phase. Among them, H1975 cells and HCC827 cells are EGFR mutant cells.
# (§3) The cells were counted, and then seeded in a 96-well plate at a density of 5000 cells/well, 100 μl for each well. The culture plate was moved into a CO2 incubator and incubated for 24 h at 37° C. and 5% CO2. Compounds at different concentrations were added to each well, 5 replicate wells for each concentration, and the cells were treated with the compounds for 48 hours. CCK8 detection reagent was added to each well according to the operation manual, and then the plate was further incubated for 1 h before terminating the culture. 450 nm wavelength was chosen, and the absorbance value of each well was adjusted on the microplate ELISA analyzer. The result was recorded. […] was taken as the horizontal axis, and absorbance as the vertical axis to plot a curve. The half inhibitory concentration (IC50) was calculated by Bliss method. Each experiment was repeated at least 3 times.
# (§4) Normal lung cell lines and different lung cancer cell lines were selected for experiments.
# HCC827 cells = assay: Inhibition of cell proliferation, CCK8 method; format: cell-based, human; details: for IC50: HCC827 EGFR mutant cells, 48 h, CCK8, read-out: Inhibitory activity (IC50) against HCC827; for selectivity for HCC827 cells (in words): EGFR mutant HCC827 cells versus other cell lines
# Description: as §1, §2, §3, §4
# H1975 cells = assay: Inhibition of cell proliferation, CCK8 method; format: cell-based, human; details: 48 h, read-out: Inhibitory activity (IC50) against H1975
# Description: as §1, §2, §3, §4
# BTK = biological target: T1, BTK (Homo sapiens, UniProt Q06187); assay: Kinase inhibition, mobility shift assay; format: biochemical; details: for Single-concentration inhibitory activity on BTK, Mean (100% inhibition): compound concentration 4 nM; for IC50: read-out: Inhibitory activity (IC50) on BTK
# T1 construct: purchased Carna 08-180
# T1 sequence (Q06187 whole entry): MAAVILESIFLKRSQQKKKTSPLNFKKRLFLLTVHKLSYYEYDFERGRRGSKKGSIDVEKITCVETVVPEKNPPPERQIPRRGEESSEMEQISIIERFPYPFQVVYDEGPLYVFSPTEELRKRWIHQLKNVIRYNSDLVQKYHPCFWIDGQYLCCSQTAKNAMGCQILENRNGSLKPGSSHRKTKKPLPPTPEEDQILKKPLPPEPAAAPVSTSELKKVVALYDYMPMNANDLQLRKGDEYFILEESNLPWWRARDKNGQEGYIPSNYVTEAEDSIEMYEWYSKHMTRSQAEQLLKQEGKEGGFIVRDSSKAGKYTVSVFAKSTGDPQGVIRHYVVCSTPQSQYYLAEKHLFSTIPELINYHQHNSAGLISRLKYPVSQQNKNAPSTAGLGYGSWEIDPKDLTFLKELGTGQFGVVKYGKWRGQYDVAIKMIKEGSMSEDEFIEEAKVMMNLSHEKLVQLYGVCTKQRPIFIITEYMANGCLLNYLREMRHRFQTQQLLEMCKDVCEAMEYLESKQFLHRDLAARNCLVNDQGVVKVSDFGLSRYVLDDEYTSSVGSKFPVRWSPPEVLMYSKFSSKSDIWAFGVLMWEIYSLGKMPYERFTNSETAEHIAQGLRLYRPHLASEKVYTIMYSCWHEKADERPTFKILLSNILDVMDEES
# Description: (§5) According to relevant literature, the inhibitory activity of five kinases (EGFR, EGFR-LT, EGFR-LTC, BTK, JAK3) were tested. Note: EGFR, EGFR-LT, EGFR-LTC: wild-type EGFR, L858R/T790M (EGFR-LT), or L858R/T790M/C797S (EGFR-LTC) mutant protein.
# (§6) 95 μl of 100% DMSO was added to the first well of a 96-well plate, and then 5 μl of 10 mM compound solution was added to prepare a 500 μM compound solution.
# (§7) 10 μl solution was taken out from the 50-fold concentration of compound solution (prepared and tested), and transferred to a 96-well plate, to which was added 90 μl kinase buffer to prepare a 5-fold concentration of compound solution.
# (§8) 5 μl solution was taken out from the 5-fold concentration of compound solution in a 96-well plate, and transferred to a 384-well reaction plate. For example, the solution was transferred from well A1 of a 96-well plate to wells A1 and A2 of a 384-well plate, from well A2 of a 96-well plate to wells A3 and A4 of a 384-well plate, and so on.
# (§9) 1) The kinase was added to 1× kinase buffer to form 2.5× kinase solution;
# (§10) 2) 10 μl of the above 2.5× kinase solution was transferred to a 384-well reaction plate, and 1× kinase buffer was added to the negative control well, then incubated for 10 min at room temperature;
# (§11) 3) FAM-labeled polypeptide and ATP were added to 1× kinase buffer to form a 2.5×substrate solution;
# (§12) 5) The 384-well reaction plate was incubated at 28° C. for 60 min, to which was added 30 μl of stop solution to stop the reaction, and the model of biochemical incubator was SPX-100B-Z.
# (§13) The conversion rate was read on CaliperEZ Reader.
# (§14) 1) The conversion rate data were copied from CaliperEZ Reader II;
# (§15) 2) The conversion rate was converted into the inhibition rate;
# (§16) Percent inhibition=(max−conversion)/(max−min)*100
# (§17) “min” is the reading of the control well without enzyme; “max” is the reading of DMSO control well.
# (§18) 3) IC50 values were fitted by using XLFit excel add-in version 5.4.0.8.
# (§19) Fitting formula: Y=Bottom+(Top−Bottom)/(1+(IC50/X)^HillSlope)
# JAK3 = biological target: T2, JAK3 (Homo sapiens, UniProt P52333); assay: Kinase inhibition, mobility shift assay; format: biochemical; details: for Single-concentration inhibitory activity on JAK3, Mean (100% inhibition): compound concentration 1 nM; for IC50: read-out: Inhibitory activity (IC50) on JAK3
# T2 construct: purchased Carna 08-046
# T2 sequence (P52333 1-1124): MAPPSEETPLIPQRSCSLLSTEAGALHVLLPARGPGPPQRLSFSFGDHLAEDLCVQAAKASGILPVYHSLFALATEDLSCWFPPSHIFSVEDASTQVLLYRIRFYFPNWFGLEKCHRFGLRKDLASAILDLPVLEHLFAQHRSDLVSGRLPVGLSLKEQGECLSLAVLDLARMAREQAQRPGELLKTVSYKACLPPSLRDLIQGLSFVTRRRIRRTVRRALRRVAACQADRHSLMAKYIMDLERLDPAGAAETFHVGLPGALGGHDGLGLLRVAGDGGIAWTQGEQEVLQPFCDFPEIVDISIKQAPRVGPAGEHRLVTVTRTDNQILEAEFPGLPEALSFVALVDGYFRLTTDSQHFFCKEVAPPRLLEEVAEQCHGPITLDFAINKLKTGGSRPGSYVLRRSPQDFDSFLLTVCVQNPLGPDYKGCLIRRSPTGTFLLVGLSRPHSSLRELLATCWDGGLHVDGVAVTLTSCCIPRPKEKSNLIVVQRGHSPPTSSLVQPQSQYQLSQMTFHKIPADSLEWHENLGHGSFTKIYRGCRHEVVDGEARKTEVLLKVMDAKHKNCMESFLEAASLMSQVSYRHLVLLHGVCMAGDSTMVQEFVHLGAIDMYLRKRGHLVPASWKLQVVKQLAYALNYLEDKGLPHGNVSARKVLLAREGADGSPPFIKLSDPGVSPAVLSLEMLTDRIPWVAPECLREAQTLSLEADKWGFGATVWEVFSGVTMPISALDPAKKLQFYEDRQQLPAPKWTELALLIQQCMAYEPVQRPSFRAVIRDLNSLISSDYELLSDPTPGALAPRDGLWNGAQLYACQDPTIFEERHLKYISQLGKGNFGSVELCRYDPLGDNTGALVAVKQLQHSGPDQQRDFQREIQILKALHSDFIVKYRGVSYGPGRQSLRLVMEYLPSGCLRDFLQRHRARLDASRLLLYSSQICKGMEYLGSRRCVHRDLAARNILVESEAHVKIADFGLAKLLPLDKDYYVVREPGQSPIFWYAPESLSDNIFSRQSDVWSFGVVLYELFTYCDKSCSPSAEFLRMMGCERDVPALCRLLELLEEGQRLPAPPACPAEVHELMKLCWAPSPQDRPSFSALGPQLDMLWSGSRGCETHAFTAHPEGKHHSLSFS
# Description: as §5, §6, §7, §8, §9, §10, §11, §12, §13, §14, §15, §16, §17, §18, §19
# EGFR = biological target: T3, EGFR (Homo sapiens, UniProt P00533); assay: Kinase inhibition, mobility shift assay; format: biochemical; details: for Single-concentration inhibitory activity against EGFR, Mean (100% inhibition): compound concentration 80 nM; for IC50: wild-type EGFR, read-out: Inhibitory activity (IC50) on EGFR
# T3 construct: purchased Carna 14-531
# T3 sequence (P00533 25-1210): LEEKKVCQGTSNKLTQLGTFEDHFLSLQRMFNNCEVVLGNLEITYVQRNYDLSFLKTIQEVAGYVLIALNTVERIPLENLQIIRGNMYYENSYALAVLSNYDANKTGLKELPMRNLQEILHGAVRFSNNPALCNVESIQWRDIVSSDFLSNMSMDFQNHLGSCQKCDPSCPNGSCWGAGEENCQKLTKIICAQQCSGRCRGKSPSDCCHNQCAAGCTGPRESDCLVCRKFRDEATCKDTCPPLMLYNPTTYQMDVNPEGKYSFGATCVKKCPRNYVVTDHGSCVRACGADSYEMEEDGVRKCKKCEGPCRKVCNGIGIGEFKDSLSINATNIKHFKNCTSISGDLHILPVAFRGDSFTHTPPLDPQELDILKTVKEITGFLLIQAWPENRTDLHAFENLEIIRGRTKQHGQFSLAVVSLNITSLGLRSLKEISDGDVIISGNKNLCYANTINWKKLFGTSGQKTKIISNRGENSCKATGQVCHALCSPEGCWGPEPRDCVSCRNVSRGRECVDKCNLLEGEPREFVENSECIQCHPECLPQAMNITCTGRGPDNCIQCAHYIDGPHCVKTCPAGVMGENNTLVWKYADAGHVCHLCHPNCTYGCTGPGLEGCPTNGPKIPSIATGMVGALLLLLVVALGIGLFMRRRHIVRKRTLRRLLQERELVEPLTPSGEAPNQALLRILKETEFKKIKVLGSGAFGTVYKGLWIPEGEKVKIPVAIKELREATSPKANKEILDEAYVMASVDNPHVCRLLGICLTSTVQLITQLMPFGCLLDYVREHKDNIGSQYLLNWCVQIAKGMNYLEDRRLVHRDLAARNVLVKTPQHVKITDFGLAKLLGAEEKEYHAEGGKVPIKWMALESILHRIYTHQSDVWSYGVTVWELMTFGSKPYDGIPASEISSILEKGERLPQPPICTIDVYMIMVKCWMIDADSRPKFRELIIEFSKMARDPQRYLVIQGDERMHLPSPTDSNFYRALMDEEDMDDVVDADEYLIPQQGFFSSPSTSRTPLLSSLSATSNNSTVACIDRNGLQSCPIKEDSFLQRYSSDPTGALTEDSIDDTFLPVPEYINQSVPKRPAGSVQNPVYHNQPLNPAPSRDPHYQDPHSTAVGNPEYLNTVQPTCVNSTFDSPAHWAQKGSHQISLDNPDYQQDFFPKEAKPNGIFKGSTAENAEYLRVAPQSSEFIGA
# Description: as §5, §6, §7, §8, §9, §10, §11, §12, §13, §14, §15, §16, §17, §18, §19
# [1] = Homo sapiens, NCI-H1975, H1975 EGFR mutant cells
SMILES,IC50 (HBE cells; Homo sapiens) [nM],"inhibitory activity on HCC827 cells (in words) (HCC827 cells; CCK8, 48 h)",IC50 (HCC827 cells; Homo sapiens) [nM],IC50 (H1975 cells; [1]) [nM],"Single-concentration inhibitory activity on BTK, Mean (100% inhibition) (BTK) [% inhibition]","Single-concentration inhibitory activity on JAK3, Mean (100% inhibition) (JAK3) [% inhibition]","Single-concentration inhibitory activity against EGFR, Mean (100% inhibition) (EGFR) [% inhibition]",IC50 (HBE cells) [nM],IC50 (HCC827 cells) [nM],IC50 (H1975 cells; H1975 EGFR mutant cells) [nM],selectivity for HCC827 cells (in words) (HCC827 cells),IC50 (BTK) [nM],IC50 (JAK3) [nM],IC50 (EGFR) [nM],toxicity to normal epithelial cells HBE cells (in words) (HBE cells; compared with positive control commercially available Avtinib),selectivity coefficient (HCC827 cells; IC50 values against HBE cells compared with HCC827 cells)
C=CC(=O)Nc1cccc(Oc2nc(Nc3ccc(N4CCN(C)CC4)c(N)c3)nc3c2ccn3COC(=O)C(C)(C)C)c1 [Compound 8],9580,certain inhibitory effect,330,42000,−2.9,−7.6,4.5,–,–,–,–,–,–,–,–,–
C=CC(=O)Nc1cccc(Oc2nc(Nc3ccc(N4CCN(C)CC4)c(Cl)c3)nc3[nH]ccc23)c1 [Compound 2],–,–,–,–,37,77,86,8730,120,1670,–,–,–,–,–,–
C=CC(=O)Nc1cccc(Oc2nc(Nc3ccc(N4CCN(C)CC4)c([N+](=O)[O-])c3)nc3c2ccn3COC(=O)C(C)(C)C)c1 [Compound 7],3610,–,440,4120,5.9,−1.4,4.7,–,–,–,–,–,–,–,–,–
C=CC(=O)Nc1cccc(Oc2nc(Nc3ccc(N4CCN(C)CC4)c(OC)c3)nc3[nH]ccc23)c1 [Compound 4],12500,–,260,22400,15,26,32,–,–,–,high targeting selectivity,31,2.3,217,–,–
C=CC(=O)Nc1cccc(Oc2nc(Nc3ccc(N4CCN(C)CC4)c(I)c3)nc3c2ccn3COC(=O)C(C)(C)C)c1 [Compound 9],7500,–,51700,52300,3.3,−4.0,3.6,–,–,–,–,–,–,–,–,–
C=CC(=O)Nc1cccc(Oc2nc(Nc3ccc(N4CCN(C)CC4)c([N+](=O)[O-])c3)nc3[nH]ccc23)c1 [Compound 5],7540,–,100,3100,3.8,23,37,–,–,–,–,43,2.2,145,–,–
C=CC(=O)Nc1cccc(Oc2nc(Nc3ccc(N4CCN(C)CC4)c(N)c3)nc3[nH]ccc23)c1 [Compound 6],22700,–,46,3840,27,29,63,–,–,–,high targeting selectivity,11,2.2,64,less toxic,exceeds 490 times
